Entries after “also recorded” stand apart in the source; their conditions may differ.
Columns and labels:
Type in all cases: cell-based, human
genome = assay: Genome-wide methylome analysis using Illumina chip assays after 5-AzaC treatment; conditions: data not shown
DUX4 [1] = assay: 24 hr 5-AzaC pulse of FSHD iPM (S2 cells), qPCR of MBD3L2 and MYH8 RNA
Protocol: (§1) FIG. 11E: qPCR assays of the expression of DUX4 target gene (MBD3L2) RNA and a muscle gene (MYH8) RNA of S2 cells (top panel) and iMyoblasts (bottom panel) following 24 hr treatment with increasing doses of 5-AzaC. 5-AzaC-treated S2 cultures were cultured for 6 days of S2 growth medium (GM) and 7 days in S3 differentiation medium (DM). 5-AzaC-treated iMyoblasts were cultured for 6 days in myoblast growth medium (GM) and 4 days in Opti-MEM differentiation medium. qPCR data were normalized to RPL13A and relative expression is shown normalized to […].
To investigate epigenetic mechanisms responsible for DUX4 repression during reprogramming and iPM induction, a blinded screen was conducted to identify epigenetic drugs that activate DUX4 in FSHD iPM undergoing myogenesis.
iPMs were treated for 24 hr with a pulse of epigenetic drugs, followed by culturing for 7 days in iPM growth medium and 7 days of iPMC differentiation medium. The cultured iPMs were then subjected to qPCR analysis to determine the expression of MBD3L2 RNA (a DUX4 biomarker) and MYH8 RNA (a muscle differentiation marker data now shown). […] See, FIG. 11D. […]
For quantification of housekeeping genes, DUX4 biomarker or muscle differentiation marker expression, 20 ng of cDNA was used for each reaction. For quantification of DUX4 expression, 90-150 ng of cDNA was used in each reaction.

DUX4 [2] = assay: 5-AzaC treatment of proliferating iMyoblasts, qPCR in myotubes; conditions: lower concentrations
Protocol: as §1
iPMs were treated for 24 hr with a pulse of epigenetic drugs, followed by culturing for 7 days in iPM growth medium and 7 days of iPMC differentiation medium. The cultured iPMs were then subjected to qPCR analysis to determine the expression of MBD3L2 RNA (a DUX4 biomarker) and MYH8 RNA (a muscle differentiation marker data now shown). […] See, FIG. 11D. At high 5-AzaC concentrations, MYH8 RNA expression decreased. […] Rickard et al., (2015). […] See, FIG. 11D.
Ribonucleic acid (RNA) was isolated either from cells in culture or from xenoengrafted TA muscles using the RNeasy® Plus Mini Kit (Qiagen) or Aurum® Total RNA Fatty and Fibrous Tissue kit (Bio-Rad) respectively per the manufacturer's specifications. […]

DUX4 [3] = assay: 5-AzaC treatment of FSHD ESC iPMs; conditions: data not shown
Protocol: iPMs were treated for 24 hr with a pulse of epigenetic drugs, followed by culturing for 7 days in iPM growth medium and 7 days of iPMC differentiation medium. The cultured iPMs were then subjected to qPCR analysis to determine the expression of MBD3L2 RNA (a DUX4 biomarker) and MYH8 RNA (a muscle differentiation marker data now shown). […] See, FIG. 11D. […] et al., (2015). […] See, FIG. 11D.

DUX4 target gene = assay: Losmapimod treatment of FSHD1 iMyotubes, NanoString digital RNA assays; design: dose or concentration left out as unconfirmed; conditions: Pre- or Post-differentiation treatment with Losmapimod, N2 medium
Text: FIG. 21A: Schematic of Losmapimod treatment protocols for Pre-drug administration at the initiation of iMyotube differentiation and at Post iMyotube differentiation after 4 days in N2 differentiation medium. FIG. 21B: NanoString digital RNA assays of DUX4 target gene and muscle gene expression in carrier treated (UT) FSHID1 iMyoblasts and in iMyotube cultures Pre- or Post-differentiation treatment with […] Losmapimod. Normalized counts of expression are presented on linear scale with each dot corresponding to an individual culture. Data are presented as mean±SEM for each condition. For NanoString RNA quantification, 50 ng or 150 ng of total RNA was used for cell culture and xenografted TA muscle, respectively. A muscle NanoString panel was constructed with human specific probes for muscle protein genes, muscle master regulatory genes, developmental transcription factors, signaling genes and multiple housekeeping genes and used for all analysis on an nCounter SprintR profiler (NanoString Technologies, Seattle, WA). Raw mRNA counts were normalized to a series of housekeeping genes (e.g., RPL13A, GAPDH, GUUSB, and VCP) using nSolverR software (NanoString Technologies, Seattle, WA).

Compound	demethylation, genome-wide methylome analysis (genome)	DUX4 expression, as assayed by MBD3L2 RNA biomarker expression (DUX4 [1]; 24 hr pulse, then 7 days iPM growth medium and 7 days iPMC differentiation medium, qPCR)	MYH8 RNA expression (DUX4 [1]; high 5-AzaC concentrations)	DUX4 biomarker expression in myotubes (DUX4 [2])	DUX4 expression (DUX4 [3])	DUX4 target gene expression (DUX4 target gene)
Nc1ncn([C@@H]2O[C@H](CO)[C@@H](O)[C@H]2O)c(=O)n1 [5-AzaC, 5-azacytidine]	selective demethylation of many sequences throughout the genome	effectively increased DUX4 expression in a concentration dependent manner; also recorded: can be reversed	decreased	only a small increase	high levels of DUX4 expression	
Cc1c(F)cc(C(=O)NC2CC2)cc1-c1ccc(C(=O)NCC(C)(C)C)cn1 [Losmapimod]						decreases; also recorded: inhibited

From patent US12686853B2, “Methods and compositions for treatment of muscle disease with iPSC-induced human skeletal muscle stem cells” (UNIVERSITY OF MASSACHUSETTS, priority 2020, dated 2026)
